Data published in PMC6470533, “Structure–Activity Study, Characterization, and Mechanism of Action of an Antimicrobial Peptoid D2 and Its D- and L-Peptide Analogues” (Molecules, 2019).
Converted amounts (≈) assume the structure as drawn. Non-standard residues stand in square brackets, D forms with d. Residues, ends and D or L forms follow the SMILES beside them. N(1-naphthylmethyl)Gly = O=C(O)CNCc1cccc2ccccc12; d1Nal = N[C@H](Cc1cccc2ccccc12)C(=O)O; N(4-MeBn)Gly = Cc1ccc(CNCC(=O)O)cc1; dNle = CCCC[C@@H](N)C(=O)O; NBuGly = CCCCNCC(=O)O; Nlys = NCCCCNCC(=O)O

How the values were obtained:
[1] = tested on: DNA synthesis in MRSP E104; test: Macromolecule biosynthesis assay, DNA (3H-thymidine); type: cell-based, Staphylococcus pseudintermedius; details: 0.5× MIC, 20 min incubation, MRSP E104, 3H-thymidine; means of two experiments
Procedure: The effect on DNA and cell wall synthesis was investigated after 20 min of incubation of MRSP E104 with the precursors ^3H-thymidine and ^3H-glucosamine hydrochloride, respectively, as previously reported by Ling et al.. Following macromolecule precipitation, radioactivity was counted using scintillation fluid. Incorporation of ^3H- or ^14C-labeled thymidine has been used to investigate DNA replication and transcriptional activity during the cell cycle; ^3H-glucosamine hydrochloride has been used in a mode of action study for the antimicrobial peptide plectasin, which targets the cell wall precursor lipid II [44].
Macromolecules (DNA and cell wall) biosynthesis rates were measured using strain MRSP E104 following a protocol adapted from Ling et al.. Briefly, overnight culture of E104 was diluted 1:100 in MHB and freshly grown up to OD 0.2 at 600 nm. Grown cells were pelleted down by centrifugation and then resuspended in fresh MHB medium followed by incubation for 20 min on a dry heat-bath with D2 or analogues or nisin and radiolabeled precursor: (50 µCi) ^3H-Thymidine (PerkinElmer) and (5 µCi) ^3H-glucosamine hydrochloride per mL for DNA and cell wall, respectively. A positive control without antimicrobials was maintained that corresponds to 100% synthesis rate. After 20 min of incubation, samples were precipitated with equal volume of cold 30% trichloroactic acid (TCA Sigma, Søborg, Denmark) on ice. After 15 to 30 min of incubation on ice, precipitates were filtered on a membrane filter and subsequently washed twice with cold 15% TCA and twice with cold water using a vacuum manifold. Next, filters were air dried overnight and then moved to 10 mL scintillation vials. Finally, 3 mL scintillation fluid was added to each vial and ^3H count was taken in Beckman Coulter LS6500 liquid scintillation counter for 1 min. The radioactive counts of the control samples with no antimicrobial exposure were considered to have 100% precursor incorporation and macromolecule synthesis. The percentage rates of macromolecule synthesis in the antimicrobial-exposed samples were calculated compared to control. Each experiment was performed twice with a technical replicate, and the average rates of synthesis were plotted.

[2] = tested on: P. aeruginosa isolates from canine infections; type: cell-based, Pseudomonas aeruginosa
Procedure: (§1) To explore the antimicrobial activity of the library of peptides and peptidomimetics, they were tested against Acinetobacter baumannii, Corynebacterium auriscanis, Escherichia coli, Enterococcus faecalis, Enterococcus faecium, Klebsiella pneumonia, Proteus mirabilis, and Pseudomonas aeruginosa. Bacteria grown on agar plates for 18 h at 37 °C were diluted to ~1 × 10^8 CFU/mL in Mueller–Hinton broth (MHB). Two-fold serial dilutions of peptides and peptidomimetics in MHB II were inoculated with bacteria to achieve a final concentration of 5 × 10^5 CFU/mL in polypropylene 96 U-well microtiter plates (Almeco, Esbjerg, Denmark), followed by incubation at 37 °C in ambient air for 18 h. The MIC values were determined as the lowest concentration showing no visible bacterial growth. Experiments were performed twice (in technical triplicates) on two different days.

[3] = tested on: membrane proton motive force of E104 cells; test: DiSC3(5) fluorescence, membrane depolarization; type: cell-based, Staphylococcus pseudintermedius; details: 0.5× MIC, n = 2
Text: In this study, the DiSC3(5) probe was used to assess the effect of D2 and its structural analogues D2L, D2D, and D2R on cytoplasmic membrane depolarization. DiSC3(5) is a cationic carbocyanine dye, which accumulates on negatively charged membrane, translocates into lipid membrane with a distribution dependent on plasma and mitochondrial membrane potential. Altered emission profile of DiSC3(5) measured via fluorescence spectroscopy indicates membrane depolarization caused by proton motive force dissipation, ATP production and/or pore formation. The increment of DiSC3(5) fluorescence of labeled cells resulting from its leakage upon addition of antimicrobial agents is usually measured over time. The protonophore carbonyl cyanide metachlorophenyl hydrazone (CCCP) is used as positive control, which rapidly dissipates PMF increasing proton permeability, alters both membrane proton gradient and transmembrane electric potential and decreases cellular ATP content. Based on the MIC and growth analysis results, sub-lethal concentrations of D2 and selected analogues were chosen to perform DiSC3(5) fluorescence and macromolecule biosynthesis studies.
Freshly grown E104 cells with OD 0.2 at 600 nm were labeled with 1 µM 3,3-dipropylthiadicarbocyanine iodide [DiSC3(5)] (Sigma-Aldrich, Søborg, Denmark) in MHB. The fluorescence spectra of fluorophore-labeled cells were plotted using the LS-50B luminescence spectrometer (PerkinElmer, Waltham, MA, USA) at excitation/emission wavelengths 546 nm/573 nm using time drive application of FLWINLAB software. After reading initial stable emission spectra of DiSC3(5), labeled cells were exposed with D2 or analogues or nisin or protonophore CCCP by directly injecting the concentrated solution of agent to the cuvette, and the change of fluorescence over time was recorded until emission spectra reached to stability. The increment of DiSC3(5) fluorescence upon addition of antimicrobials or CCCP (FUafter-exposure – FUbefore-exposure) was calculated and plotted in addition to raw fluorescence spectra. Experiment was performed twice and average fluorescence change was plotted with standard deviation.

[4] = tested on: other selected dog pathogens; test: MIC against other selected dog pathogens; type: cell-based; details: summary of Table 4, except for P. mirabilis
Text: We screened the antimicrobial activity of D2 and the analogue D2D against a number of canine pathogens (Table 4). These included Acinetobacter baumannii, Escherichia coli, Enterococcus faecalis, and Klebsiella pneumoniae isolated from wounds, Corynebacterium auriscanis associated with canine otitis externa, the nosocomial pathogen Enterococcus faecium, the endocartitis-causing Streptococcus canis, and Proteus mirabilis
as §1

E. coli, 30235 = type: cell-based, Escherichia coli; details: 30235, 18 h
Procedure: as §1

[5] = tested on: Methicillin sensitive Staphylococcus pseudintermedius (26916); type: cell-based; details: 18 h
red blood cell (RBC) = details: 0.5% RBC suspension in PBS, 1 h, 37 °C, read at 414 nm, normalized to mellitin and PBS, triplicates
Procedure: Briefly, 75 µL of peptide in PBS was mixed with 75 µL of a 0.5% red blood cell (RBC) suspension in PBS, and incubated for 1 h at 37 °C. The hemoglobin release was then measured at 414 nm and normalized, using mellitin as positive control and PBS as negative control. Experiments were done in triplicates.

[6] = tested on: clinical MRSP strain C22963; test: Time–kill kinetics; type: cell-based, Staphylococcus pseudintermedius; details: for log reduction in time–kill: after 6 h, MRSP C22963, 10^5 CFU/mL in MHB
Procedure: The time–kill experiments of D2 against the methicillin-resistant S. pseudintermedius strain C22963 were performed using an in-house protocol adopted and modified from Blondeau et al.: the bacterium was grown overnight on a blood agar plate. The next day, an inoculum was transferred to MHB and incubated for 2 h at 37 °C to reach exponential growth phase. […] Aliquots were removed at 1 h intervals up to 6h and spotted in triplicate on blood agar plates, and incubated overnight at 37 °C. Colonies were counted and CFU per mL was calculated.

[7] = tested on: S. pseudintermedius isolates from canine infections; type: cell-based, Staphylococcus pseudintermedius; details: 50 isolates from canine infections

SMILES	inhibition of DNA biosynthesis rate [1] [%]	MICs against canine P. aeruginosa isolates ([2]; isolates from canine infections, 18 h) [µg/mL]	effect on PMF (membrane depolarization, DiSC3(5) fluorescence) [3]	MIC range against other selected dog pathogens [4] [µg/mL]	MIC E. coli (E. coli, 30235) [µg/mL]	MIC MSSP [5] [µg/mL]	HA, percentage of hemolysis at 150 µM (red blood cell (RBC)) [%]	time to killing to bacterial levels below the detection threshold ([6]; 1× MIC, MRSP C22963) [min]	MIC range, panel of 50 P. aeruginosa isolates ([2]; 50 isolates from canine infections) [µM]	MIC range, panel of 50 S. pseudintermedius isolates [7] [µM]	log reduction in time–kill ([6]; 1× MIC) [log]	log reduction in time–kill ([6]; 2× MIC) [log]
CCCC[C@@H](NC(=O)[C@@H](CCCCN)NC(=O)[C@@H](Cc1cccc2ccccc12)NC(=O)[C@@H](CCCCN)NC(=O)[C@@H](Cc1ccccc1)NC(=O)[C@@H](Cc1cccc2ccccc12)NC(=O)[C@@H](CCCCN)NC(=O)[C@H](N)CCCCN)C(N)=O [D2D] (H-[dK][dK][d1Nal][dF][dK][d1Nal][dK][dNle]-NH2)	37	4	lowest activity on PMF	2 to 16	4 (≈ 3.38 µM)	1 to 4	35	30				
CCCCN(CC(N)=O)C(=O)CN(CCCCN)C(=O)CN(Cc1cccc2ccccc12)C(=O)CN(CCCCN)C(=O)CN(Cc1ccc(C)cc1)C(=O)CN(Cc1cccc2ccccc12)C(=O)CN(CCCCN)C(=O)CNCCCCN [D2] (H-[Nlys][Nlys][N(1-naphthylmethyl)Gly][N(4-MeBn)Gly][Nlys][N(1-naphthylmethyl)Gly][Nlys][NBuGly]-NH2)	< 5				64 (≈ 53.4 µM)	2 to 4	24		3.12 to 12.5	1.56 to 3.12	1.5	2.7
